Assay results from article PMC12216609, “Inhibitors of eIF1A-ribosome interaction unveil uORF-dependent regulation of translation initiation and antitumor and antiviral effects” (The EMBO Journal, 2025).
Values joined by “and” are separate entries in the source; they are usually repeats but may differ in a detail not shown here. Equal values may be shown once. Read-outs that look alike come from different tables or passages of the source.

Assays:
[1] = tested on: IRF7 5'UTR firefly luciferase reporter in HEK293T cells; settings: for Reference vs IRF7 (Final data, Fig. 1E): 1/Result, relative to DMSO; for LONG (summary - All), normalized to DMSO / SHORT (summary - All), normalized to DMSO: individual replicates, outliers excluded, DMSO = 1; for SHORT (summary - All), normalized to DMSO: Short reporter; for average ( long vs short ratio): summary - All;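 as to all read-outs here: luciferase signal corrected by a co-transfected GFP reporter for transfection efficiency, read after overnight compound exposure, with Long and Short reporters differing in 5'UTR length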
Description: For the effect on ribosomal scanning, we used two firefly luciferase reporter genes that differ in their 5'UTR length (Fig. 1C). […] Cells were transfected with these reporters along with a GFP reporter gene used to normalize transfection efficiency. After an overnight 1Ai or DMSO (vehicle control) exposure, luciferase and GFP expression were measured, and normalized activity was determined.
For the reference vs IRF7 5'UTR luciferase reporter assay, HEK239T cells in a 12-well plate were transfected with the previously described IRF7 5'UTR or reference firefly luciferase reported genes (Sehrawat et al, [2019]) (100 ng/well) together with GFP (20 ng/well) that served as an internal control by CaCl2 transfection. After 6 h, half of the growth medium was replaced with a medium containing the different compounds, reaching a final concentration of 20 µM. Twenty-four hours after transfection, transfection efficiency was evaluated using GFP fluorescence intensity (Cytation 5, ex/em: 470/525). Cells were harvested in 50 µL Reported lysis buffer (RLB) and put on a shaker for 10 min. From each well 5 µL were taken in duplicates and tested by luminometer.

[2] = tested on: cap-proximal AUG GFP reporter in HEK293T cells; type: cell-based; settings: GFP WB densitometry; 20 µM overnight; dmso 0.965946;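 also: ratio of upstream to downstream AUG initiation products on GFP Western blot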
[3] = tested on: CUG/GUG vs AUG start codon luciferase reporters in HEK293T cells; experiment: Near-cognate AUG starting codon fidelity reporter assay (GUG, CUG vs AUG); type: cell-based; settings: for CUG vs AUG (%): CUG start codon reporter relative to AUG reporter (AUG = 100); for CUG vs AUG (%) / GUG vs AUG (%): compound at 20uM (summary head), single-experiment calculation; for GUG vs AUG (%): GUG start codon reporter relative to AUG reporter (AUG = 100); for average CUG and GUG / average CUG and GUG relative to DMSO / CUG Average / GUG Average: NUG experiment; for CUG Average: CUG vs AUG reporter; for GUG Average: GUG vs AUG reporter; for NUG (Final data, Fig. 1E): average CUG and GUG relative to DMSO, 20 µM overnight; for GUG vs AUG data (%) / GUG vs AUG (%) Average: compound at 20uM; for GUG vs AUG data (%): individual repeat; for GUG vs AUG (%) Average: summary average of repeats, DMSO control average […]
eIF1A = target: T1, eIF1A (Homo sapiens, UniProt P47813); type: binding; settings: for fluorescence ratio, eIF1A: background-corrected, relative to DMSO or lowest 1Ai concentration, replicate columns; for WT eIF1A IC50: fluorescence binding
T1 construct: His-bdSUMO (cleaved yes); made in house; host or cells: E. coli BL-21
T1 sequence (P47813 whole entry): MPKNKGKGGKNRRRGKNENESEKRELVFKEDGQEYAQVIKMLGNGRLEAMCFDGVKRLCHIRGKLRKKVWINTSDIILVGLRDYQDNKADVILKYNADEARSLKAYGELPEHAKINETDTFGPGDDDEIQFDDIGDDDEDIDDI

RPS10 = target: T2, RPS10 (Homo sapiens, UniProt P46783); type: binding
T2 construct: made in house; host or cells: E. coli BL-21

[4] = read-out: IC50 (line under RPS10 binding data)
[5] = summary table, fluorescence binding assay, read-out: IC50 concentration (µM), RPS10
[6] = raw data calculation of one experiment, GFP normalized, AUG set to 100, compound marked (20)
[7] = summary table, fluorescence binding assay

Structure (SMILES): Cc1cc(-n2c(C)cc(-c3csc(N)n3)c2C)no1 [1Ai-6464]
- Reference vs IRF7 (Final data, Fig. 1E) ([1]; 20 µM): 2.824
- LONG (summary - All), normalized to DMSO ([1]; Long reporter, 20 µM): 0.0351 and 0.33 and 0.45 and 0.34
- SHORT (summary - All), normalized to DMSO ([1]; 20 µM): 0.16 and 1.35 and 0.67 and 1.06
- average ( long vs short ratio) ([1]; 20 µM): 0.354
- US/DS ratio, average [2]: 0.6968
- CUG vs AUG (%) [3]: 6.312%
- GUG vs AUG (%) [3]: 1.439%
- average CUG and GUG [3]: 3.765
- average CUG and GUG relative to DMSO [3]: 0.8347
- CUG Average [3]: 6.092
- GUG Average [3]: 1.4368
- NUG (Final data, Fig. 1E) [3]: 0.835
- GUG vs AUG data (%) [3]: 1.40% and 1.10% and 1.81% and 1.45%
- GUG vs AUG (%) Average [3]: 1.44%
- fluorescence ratio, eIF1A (eIF1A; 1Ai conc. 0.25 uM): 0.9721 and 0.9575
- fluorescence ratio, eIF1A (eIF1A; 1Ai conc. 0.5 uM): 1.01 and 0.9713
- fluorescence ratio, eIF1A (eIF1A; 1Ai conc. 1 uM): 0.9857
- fluorescence ratio, eIF1A (eIF1A; 1Ai conc. 2 uM): 0.9155
- fluorescence ratio, eIF1A (eIF1A; 1Ai conc. 4 uM): 0.9236 and 0.8848
- fluorescence ratio, eIF1A (eIF1A; 1Ai conc. 8 uM): 0.5527 and 0.8172
- fluorescence ratio, eIF1A (eIF1A; 1Ai conc. 16 uM): 0.5305 and 0.7368
- fluorescence ratio, eIF1A (eIF1A; 1Ai conc. 32 uM): 0.4838 and 0.639
- fluorescence ratio, eIF1A (eIF1A; 1Ai conc. 64 uM): 0.4268 and 0.4798
- fluorescence ratio, eIF1A (eIF1A; 1Ai conc. 256 uM): 0.2524 and 0.2775
- IC50 (eIF1A; eIF1A, from the titration data, read-out: IC50 (eIF1A titration block)): 21.2 µM
- IC50 (eIF1A; summary table, fluorescence binding assay, read-out: IC50 concentration (µM), WT eIF1A): 21.2 µM
- RPS10 fluorescence ratio to control (RPS10; 1Ai conc. 0.25 uM): 0.9293
- RPS10 fluorescence ratio to control (RPS10; 1Ai conc. 0.5 uM): 0.9332
- RPS10 fluorescence ratio to control (RPS10; 1Ai conc. 1 uM): 0.9643
- RPS10 fluorescence ratio to control (RPS10; 1Ai conc. 2 uM): 0.9061
- RPS10 fluorescence ratio to control (RPS10; 1Ai conc. 4 uM): 0.8558
- RPS10 fluorescence ratio to control (RPS10; 1Ai conc. 8 uM): 0.7733
- RPS10 fluorescence ratio to control (RPS10; 1Ai conc. 16 uM): 0.6954
- RPS10 fluorescence ratio to control (RPS10; 1Ai conc. 32 uM): 0.5591
- RPS10 fluorescence ratio to control (RPS10; 1Ai conc. 64 uM): 0.4769
- RPS10 fluorescence ratio to control (RPS10; 1Ai conc. 256 uM): 0.3869
- IC50 (RPS10; [4]): 6.4 µM
- IC50 (RPS10; read-out: RPS10 IC50): 6.4 µM
- IC50 (RPS10; [5]): 6.4 µM

Structure (SMILES): Cn1c(=O)c2ccccc2n2c(CNC(c3ccc4c(c3)CCC4)c3cccs3)nnc12 (stereo not shown) [1Ai-7688]
- Reference vs IRF7 (Final data, Fig. 1E) ([1]; 20 µM): 1.509
- LONG (summary - All), normalized to DMSO ([1]; Long reporter, 20 µM): 0.23 and 0.0442 and 0.78 and 0.63 and 1.12 and 0.61
- SHORT (summary - All), normalized to DMSO ([1]; 20 µM): 0.19 and 0.05 and 1.25 and 0.79 and 1.33 and 1.55
- Long 5'UTR reporter luciferase activity, normalized to DMSO (=1), single replicates ([1]; compound at 20 µM, left data block (Long), source data of Fig 1C): 0.2324 and 0.04416 and 0.7839 and 0.6346 and 1.115 and 0.6102
- average ( long vs short ratio) ([1]; 20 µM): 0.663
- US/DS ratio, average [2]: 0.7504
- CUG vs AUG (%) [3]: 6.15%
- GUG vs AUG (%) [3]: 1.391%
- average CUG and GUG [3]: 3.434
- average CUG and GUG relative to DMSO [3]: 0.7613
- CUG Average [3]: 5.347
- GUG Average [3]: 1.52
- NUG (Final data, Fig. 1E) [3]: 0.761
- GUG vs AUG data (%) [3]: 1.96% and 1.30% and 1.49% and 1.33%
- GUG vs AUG (%) Average [3]: 1.52%
- calculation: CUG (AUG = 100) [3, 6]: 4.522
- calculation: GUG (AUG = 100) [3, 6]: 1.611
- fluorescence ratio, eIF1A (eIF1A; 1Ai conc. 0.25 uM): 1.037 and 0.9455
- fluorescence ratio, eIF1A (eIF1A; 1Ai conc. 0.5 uM): 1.0637 and 0.9156
- fluorescence ratio, eIF1A (eIF1A; 1Ai conc. 1 uM): 1.06 and 0.9161
- fluorescence ratio, eIF1A (eIF1A; 1Ai conc. 2 uM): 1.104 and 0.9936
- fluorescence ratio, eIF1A (eIF1A; 1Ai conc. 4 uM): 1.1 and 0.9264
- fluorescence ratio, eIF1A (eIF1A; 1Ai conc. 8 uM): 1.007 and 0.92
- fluorescence ratio, eIF1A (eIF1A; 1Ai conc. 16 uM): 0.939 and 0.9024
- fluorescence ratio, eIF1A (eIF1A; 1Ai conc. 32 uM): 0.8822 and 0.9176
- fluorescence ratio, eIF1A (eIF1A; 1Ai conc. 64 uM): 0.9562 and 1.05
- fluorescence ratio, eIF1A (eIF1A; 1Ai conc. 256 uM): 1.305 and 1.351
- WT eIF1A IC50 (eIF1A): No binding
- IC50 concentration (µM), WT eIF1A (eIF1A; [7]): No binding
- RPS10 fluorescence ratio to control (RPS10; 1Ai conc. 0.25 uM): 1.264
- RPS10 fluorescence ratio to control (RPS10; 1Ai conc. 0.5 uM): 2.089
- RPS10 fluorescence ratio to control (RPS10; 1Ai conc. 1 uM): 1.116
- RPS10 fluorescence ratio to control (RPS10; 1Ai conc. 2 uM): 1.353
- RPS10 fluorescence ratio to control (RPS10; 1Ai conc. 4 uM): 1.556
- RPS10 fluorescence ratio to control (RPS10; 1Ai conc. 8 uM): 0.3218
- RPS10 fluorescence ratio to control (RPS10; 1Ai conc. 16 uM): 0.1412
- RPS10 fluorescence ratio to control (RPS10; 1Ai conc. 32 uM): 0.0755
- IC50 (RPS10; [4]): 4.5 µM
- IC50 (RPS10; read-out: RPS10 IC50): 4.5 µM
- IC50 (RPS10; [5]): 4.5 µM

Structure (SMILES): Cc1ccc(C)n1-c1cc([N+](=O)[O-])ccc1N1CCN(C(=O)c2ccccc2)CC1 [1Ai-9008]
- Reference vs IRF7 (Final data, Fig. 1E) ([1]; 20 µM): 0.775
- LONG (summary - All), normalized to DMSO ([1]; Long reporter, 20 µM): 0.81 and 0.44 and 0.52 and 0.48
- SHORT (summary - All), normalized to DMSO ([1]; 20 µM): 0.66 and 0.59 and 0.24 and 0.26
- Long: Normalized to average DMSO ([1]; data section, Long reporter, GFP-corrected, 20 µM, per experiment, includes values excluded as outliers): 0.8135 and 0.4384 and 0.5246 and 0.4822
- average ( long vs short ratio) ([1]; 20 µM): 1.290
- US/DS ratio, average [2]: 0.5847
- CUG vs AUG (%) [3]: 13.0714%
- GUG vs AUG (%) [3]: 3.675%
- average CUG and GUG [3]: 8.448
- average CUG and GUG relative to DMSO [3]: 1.873
- CUG Average [3]: 12.6998
- GUG Average [3]: 4.196
- NUG (Final data, Fig. 1E) [3]: 1.873
- GUG vs AUG data (%) [3]: 4.42% and 4.68% and 2.86% and 4.83%
- GUG vs AUG (%) Average [3]: 4.20%
- fluorescence ratio, eIF1A (eIF1A; 1Ai conc. 0.25 uM): 0.8521 and 1
- fluorescence ratio, eIF1A (eIF1A; 1Ai conc. 0.5 uM): 0.8814 and 1.016
- fluorescence ratio, eIF1A (eIF1A; 1Ai conc. 1 uM): 0.8675 and 0.9766
- fluorescence ratio, eIF1A (eIF1A; 1Ai conc. 2 uM): 1.139 and 0.9182
- fluorescence ratio, eIF1A (eIF1A; 1Ai conc. 4 uM): 1.153 and 0.9421
- fluorescence ratio, eIF1A (eIF1A; 1Ai conc. 8 uM): 0.9831 and 0.8499
- fluorescence ratio, eIF1A (eIF1A; 1Ai conc. 16 uM): 0.926 and 0.7716
- fluorescence ratio, eIF1A (eIF1A; 1Ai conc. 32 uM): 0.9353 and 0.7367
- fluorescence ratio, eIF1A (eIF1A; 1Ai conc. 64 uM): 1.131 and 0.7322
- fluorescence ratio, eIF1A (eIF1A; 1Ai conc. 256 uM): 1.254 and 0.8135
- WT eIF1A IC50 (eIF1A): No binding
- IC50 concentration (µM), WT eIF1A (eIF1A; [7]): No binding
- RPS10 fluorescence ratio to control (RPS10; 1Ai conc. 0.25 uM): 1
- RPS10 fluorescence ratio to control (RPS10; 1Ai conc. 0.5 uM): 0.9583
- RPS10 fluorescence ratio to control (RPS10; 1Ai conc. 1 uM): 0.9477
- RPS10 fluorescence ratio to control (RPS10; 1Ai conc. 2 uM): 0.9687
- RPS10 fluorescence ratio to control (RPS10; 1Ai conc. 4 uM): 0.9804
- RPS10 fluorescence ratio to control (RPS10; 1Ai conc. 8 uM): 0.9597
- RPS10 fluorescence ratio to control (RPS10; 1Ai conc. 16 uM): 0.9394
- RPS10 fluorescence ratio to control (RPS10; 1Ai conc. 32 uM): 1.009
- RPS10 fluorescence ratio to control (RPS10; 1Ai conc. 256 uM): 1.212
- IC50 (RPS10; [4]): 9.9 µM
- IC50 (RPS10; read-out: RPS10 IC50): 9.9 µM
- IC50 (RPS10; [5]): 9.9 µM
